# From article PMC4490613 (Journal of Neuroinflammation, 2015)
# Where two headings read alike, the source gives them in different places.
# What was measured:
# hCB2 [1] = biological target: T1, hCB2 (Homo sapiens, UniProt P34972); experiment: [3H]CP55, […] displacement, CHO membranes; type: binding
# T1 construct: gene CNR2; full-length receptor in CHO-K1 cells, membranes or intact cells; PathHunter CHO-K1-HOMSA-CNR2 for beta-arrestin
# hCOX-2 = biological target: T2, hCOX-2 (Homo sapiens, UniProt P35354); experiment: fluorescent COX inhibitor assay (ADHP), recombinant hCOX-2; type: biochemical; details: read-out: h COX-2 / AA
# T2 construct: gene PTGS2
# T2 sequence (P35354 18-604): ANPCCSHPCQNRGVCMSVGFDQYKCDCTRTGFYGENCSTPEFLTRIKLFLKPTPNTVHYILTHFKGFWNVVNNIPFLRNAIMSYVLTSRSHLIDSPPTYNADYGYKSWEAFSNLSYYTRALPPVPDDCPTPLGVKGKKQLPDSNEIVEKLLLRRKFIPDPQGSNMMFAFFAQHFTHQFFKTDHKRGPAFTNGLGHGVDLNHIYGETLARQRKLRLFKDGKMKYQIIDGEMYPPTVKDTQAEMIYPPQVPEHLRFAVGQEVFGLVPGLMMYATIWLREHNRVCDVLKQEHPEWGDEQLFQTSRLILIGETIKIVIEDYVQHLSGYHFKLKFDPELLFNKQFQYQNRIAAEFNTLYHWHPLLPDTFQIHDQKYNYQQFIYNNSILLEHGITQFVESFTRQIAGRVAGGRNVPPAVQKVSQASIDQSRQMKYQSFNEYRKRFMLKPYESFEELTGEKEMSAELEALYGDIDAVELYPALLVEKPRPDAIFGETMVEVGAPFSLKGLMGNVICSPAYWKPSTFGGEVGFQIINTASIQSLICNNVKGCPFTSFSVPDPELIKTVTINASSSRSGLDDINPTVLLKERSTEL
# Excerpt: fluorescent COX inhibitor assay (ADHP), recombinant hCOX-2 on hCOX-2
# hCB2 [2] = biological target: T1, hCB2; experiment: […]GTPγS binding, CHO-hCB2 membranes; type: biochemical; details: read-out: CHO membranes / h CB2 [ ^35 S] GTPγS
# hCB1 = biological target: T3, hCB1 (Homo sapiens, UniProt P21554); experiment: [3H]CP55, […] displacement, CHO membranes; type: binding; details: read-out: CHO membranes / h CB 1
# T3 construct: gene CNR1; full-length receptor in CHO cell membranes
# T3 sequence (P21554 whole entry): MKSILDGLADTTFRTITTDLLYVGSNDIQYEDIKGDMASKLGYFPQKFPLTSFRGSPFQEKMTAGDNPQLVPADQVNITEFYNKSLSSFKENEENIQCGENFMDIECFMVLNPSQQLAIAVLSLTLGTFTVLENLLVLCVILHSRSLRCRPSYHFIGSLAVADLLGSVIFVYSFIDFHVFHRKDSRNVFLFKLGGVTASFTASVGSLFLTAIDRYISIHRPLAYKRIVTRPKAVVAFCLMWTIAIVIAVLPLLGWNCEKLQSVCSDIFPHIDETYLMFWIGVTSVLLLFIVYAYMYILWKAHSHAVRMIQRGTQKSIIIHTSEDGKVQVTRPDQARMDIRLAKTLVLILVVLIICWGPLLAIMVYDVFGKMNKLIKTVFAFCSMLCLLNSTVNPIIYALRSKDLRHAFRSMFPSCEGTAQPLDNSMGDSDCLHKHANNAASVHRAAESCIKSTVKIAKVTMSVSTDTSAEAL
# hCB2 [3] = biological target: T1, hCB2; experiment: […]GTPγS binding, CHO-hCB2 membranes; type: biochemical
# hCB2 [4] = biological target: T1, hCB2; experiment: forskolin-induced cAMP, GloSensor, CHO-hCB2 cells; type: cell-based; details: read-out: CHO cells / h CB2 cAMP
# Excerpt: forskolin-induced cAMP, GloSensor, CHO-hCB2 cells on hCB2
# [5] = read-out: CHO membranes / h CB 2
# T1 sequence (P34972 whole entry): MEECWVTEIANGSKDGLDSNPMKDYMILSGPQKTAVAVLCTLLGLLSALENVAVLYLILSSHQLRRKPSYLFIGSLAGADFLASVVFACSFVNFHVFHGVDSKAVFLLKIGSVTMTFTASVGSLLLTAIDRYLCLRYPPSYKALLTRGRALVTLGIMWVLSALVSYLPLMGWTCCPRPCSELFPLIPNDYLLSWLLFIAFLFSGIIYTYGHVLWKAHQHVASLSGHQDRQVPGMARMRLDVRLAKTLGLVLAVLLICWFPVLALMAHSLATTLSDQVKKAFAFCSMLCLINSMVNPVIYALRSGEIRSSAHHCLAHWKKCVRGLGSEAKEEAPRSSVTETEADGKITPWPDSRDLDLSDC
IC50 (hCOX-2) [nM],Ki (hCB2 [1]; [5]) [nM],Ki (hCB1) [nM],SMILES,also measured
10200 ± 120,,,"CCC(C)c1ccc(O)c(-c2cc(C(C)CC)ccc2O)c1 (stereo not shown) [compound 32, 5,5′-di-sec-butyl-biphenyl-2,2′-diol]",Ki (hCB2 [1]): > 10000 nM
4310 ± 100,350 ± 110,1120 ± 150,"C=CCc1ccc(OCCCC)c(-c2ccc(O)c(CC=C)c2)c1 [34a, 2-butyloxy-5,3′-di-(2-propenyl)-biphenyl-4′-ol]",IC50 (hCB2 [2]): 1820 ± 140 nM
,,,CCCCC/C=C\C/C=C\C/C=C\C/C=C\CCCC(=O)OC(CO)CO [2-AG],EC50 (hCB2 [3]; read-out: EC50): 74 nM
1210 ± 80,110 ± 90,790 ± 100,"C=CCc1ccc(OC)c(-c2ccc(O)c(CC=C)c2)c1 [27a, 2-methoxy-5,3′-di-(2-propenyl)-biphenyl-4′-ol]",EC50 (hCB2 [3]; read-out: CHO membranes / h CB2 [ ^35 S] GTPγS): 180 ± 90 nM; IC50 (hCB2 [4]): 710 ± 90 nM
,,,"C=CCc1ccc(O)c(-c2ccc(OC)c(CC=C)c2)c1 [MH, 4′-methoxy-5,3′-di-(2-propenyl)-biphenyl-2-ol]","IC50 (hCOX-2; substrate arachidonic acid 10 μM, heme, pH 8, 15 min pre-incubation, RT): 580 ± 80 nM"
